PMC4583267, “Synthesis and Evaluation of Novel Triterpene Analogues of Ursolic Acid as Potential Antidiabetic Agent” (PLoS ONE, 2015)
Like-named read-outs stand apart in the source and are kept apart here.

Key:
[1] = biological target: T1, α-glucosidase from baker's yeast (Saccharomyces cerevisiae, UniProt P53341); assay: biochemical
T1 construct: purchased
Experimental: A stock solution of each sample, which has been dissolved in dimethylsulfoxide (DMSO) at the concentrations of 0.05 μM to 500 μM, was diluted with 0.1 M phosphate buffer solution (pH = 6.8) containing an appropriate concentration of enzyme solution (0.1 U/mL). After a 10 min pre-incubation at 37°C of the reactions, the substrate (1mM p-nitrophenyl-α-D-glucopyranoside) was added to initiate them. Then the reactions were incubated for 30 min at 37°C before they were terminated by adding 1 M Na2CO3, and their optical density values were measured at 405 nm by using a Multimodel Plate Reader (Infinite 200). Each experiment was repeated at least four times.
To determine the inhibition activity of each sample, the enzyme activity was measured at a fixed substrate concentration, in which a sequence of sample concentrations were tested. The IC50 value was calculated according to the curve fit to the sequence of concentrations versus the corresponding inhibition abilities. The results were illustrated in Table 1 and Fig 3.
The α-glucosidase inhibition assay was performed according to the method of Worawalai et al. with a slight modification. The α-glucosidase enzyme (0.1 U/mL) and substrate (1 mM p-nitrophenyl-α-D-glucopyranoside) were dissolved in 0.1 M phosphate buffer, pH 6.8. 10 μL of each synthesized analogue (1 mg/mL in DMSO) was pre-incubated with 8 μL of α-glucosidase at 37°C for 10 min. A 100 μL of substrate solution was then added to the reaction mixture, which was further incubated at 37°C for 30 min. Then, the reaction was terminated by adding 100 μL of 1 M Na2CO3 solution. Enzymatic activity was quantified by measuring the absorbance at 405 nm with a use of a Multimodel Plate Reader (Infinite 200). The percentage of inhibition was calculated by using [(A 0-A 1)/A 0]×100%, where A 0 was the absorbance without the sample, and A 1 was the absorbance with the sample. The IC50 value was determined from a plot of the percentage of inhibition versus the sample concentration.

[2] = biological target: T1, α-glucosidase from baker's yeast; conditions: cited from earlier work; for Observed pIC50: S4 Table, analogues of previous work; for IC50: values of earlier work
[3] = Table 1, read-out: Observed pIC50 (converted)

T1 sequence (P53341 whole entry): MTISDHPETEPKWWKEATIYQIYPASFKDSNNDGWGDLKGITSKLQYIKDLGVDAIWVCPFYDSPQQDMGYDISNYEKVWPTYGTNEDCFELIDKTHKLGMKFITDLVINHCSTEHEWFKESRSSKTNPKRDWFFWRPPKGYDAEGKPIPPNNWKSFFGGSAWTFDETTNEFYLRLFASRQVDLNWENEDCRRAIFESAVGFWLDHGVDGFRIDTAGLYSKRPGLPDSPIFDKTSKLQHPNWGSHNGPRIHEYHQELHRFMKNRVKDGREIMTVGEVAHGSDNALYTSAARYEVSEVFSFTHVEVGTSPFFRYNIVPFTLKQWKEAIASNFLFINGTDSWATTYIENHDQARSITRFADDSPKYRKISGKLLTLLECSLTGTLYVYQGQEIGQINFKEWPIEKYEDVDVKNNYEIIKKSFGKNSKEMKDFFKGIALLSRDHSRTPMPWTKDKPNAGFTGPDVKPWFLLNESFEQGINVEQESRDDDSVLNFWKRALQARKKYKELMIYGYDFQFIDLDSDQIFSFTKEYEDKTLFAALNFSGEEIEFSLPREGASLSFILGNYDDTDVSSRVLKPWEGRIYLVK

Structure (SMILES) | Observed pIC50 [2] | IC50 [1, 3] [nM] | other results
C[C@H]1[C@H](C)CC[C@]2(C(=O)O)CC[C@]3(C)C(=CC[C@@H]4[C@@]5(C)CC[C@H](O)C(C)(C)[C@@H]5CC[C@]43C)[C@H]12 [Analogue 1, 3β-hydroxy-urs-12-en-28-oic acid, reference compound] | – | – | IC50 [1]: 5080 ± 700 nM
CC(=O)O[C@H]1CC[C@@]2(C)C(CC[C@]3(C)C2CC=C2C4[C@@H](C)[C@H](C)CC[C@]4(C(=O)O)CC[C@]23C)C1(C)C (stereo partly shown) [Analogue 2] | 5.278 | – | IC50 [2]: 5.27 ± 0.35 µM
CC(=O)O[C@H]1CC[C@@]2(C)C(CC[C@]3(C)C2CC=C2C4[C@@H](C)[C@H](C)CC[C@]4(C(=O)Nc4ccccc4)CC[C@]23C)C1(C)C (stereo partly shown) [Analogue 3a] | 5.249 | – | IC50 [2]: 5.64 ± 1.12 µM
C[C@@H]1CC[C@]2(C(=O)Nc3ccccc3)CC[C@]3(C)C(=CCC4[C@@]5(C)CC[C@H](O)C(C)(C)C5CC[C@]43C)C2[C@H]1C (stereo partly drawn) [Analogue 3b, N-[3β-Hydroxy-urs-12-en-28-oyl]-aminobenzene] | – | 1690 | –
CC(=O)O[C@H]1CC[C@@]2(C)C(CC[C@]3(C)C2CC=C2C4[C@@H](C)[C@H](C)CC[C@]4(C(=O)Nc4ccccc4F)CC[C@]23C)C1(C)C (stereo partly shown) [Analogue 4a] | 4.848 | – | –
C[C@@H]1CC[C@]2(C(=O)Nc3ccccc3F)CC[C@]3(C)C(=CCC4[C@@]5(C)CC[C@H](O)C(C)(C)C5CC[C@]43C)C2[C@H]1C (stereo partly drawn) [Analogue 4b, N-[3β-Hydroxy-urs-12-en-28-oyl]-o-fluoroaniline] | – | 1510 | –
CC(=O)O[C@H]1CC[C@@]2(C)C(CC[C@]3(C)C2CC=C2C4[C@@H](C)[C@H](C)CC[C@]4(C(=O)Nc4ccccc4Cl)CC[C@]23C)C1(C)C (stereo partly shown) [Analogue 5a] | 4.481 | – | –
C[C@@H]1CC[C@]2(C(=O)Nc3ccccc3Cl)CC[C@]3(C)C(=CCC4[C@@]5(C)CC[C@H](O)C(C)(C)C5CC[C@]43C)C2[C@H]1C (stereo partly drawn) [Analogue 5b, N-[3β-Hydroxy-urs-12-en-28-oyl]-o-chloroaniline] | – | 1310 | –
CC(=O)O[C@H]1CC[C@@]2(C)C(CC[C@]3(C)C2CC=C2C4[C@@H](C)[C@H](C)CC[C@]4(C(=O)Nc4ccccc4Br)CC[C@]23C)C1(C)C (stereo partly shown) [Analogue 6a] | 4.954 | – | –
C[C@@H]1CC[C@]2(C(=O)Nc3ccccc3Br)CC[C@]3(C)C(=CCC4[C@@]5(C)CC[C@H](O)C(C)(C)C5CC[C@]43C)C2[C@H]1C (stereo partly drawn) [Analogue 6b, N-[3β-Hydroxy-urs-12-en-28-oyl]-o-bromoaniline] | – | 2560 | –
CC(=O)O[C@H]1CC[C@@]2(C)C(CC[C@]3(C)C2CC=C2C4[C@@H](C)[C@H](C)CC[C@]4(C(=O)Nc4ccc(F)cc4)CC[C@]23C)C1(C)C (stereo partly shown) [Analogue 7a] | 5.185 | – | –
C[C@@H]1CC[C@]2(C(=O)Nc3ccc(F)cc3)CC[C@]3(C)C(=CCC4[C@@]5(C)CC[C@H](O)C(C)(C)C5CC[C@]43C)C2[C@H]1C (stereo partly drawn) [Analogue 7b, N-[3β-Hydroxy-urs-12-en-28-oyl]-p-fluoroaniline] | – | 1670 | –
CC(=O)O[C@H]1CC[C@@]2(C)C(CC[C@]3(C)C2CC=C2C4[C@@H](C)[C@H](C)CC[C@]4(C(=O)Nc4ccc(Cl)cc4)CC[C@]23C)C1(C)C (stereo partly shown) [Analogue 8a] | 5.489 | – | IC50 [2]: 3.24 ± 0.21 µM
C[C@@H]1CC[C@]2(C(=O)Nc3ccc(Cl)cc3)CC[C@]3(C)C(=CCC4[C@@]5(C)CC[C@H](O)C(C)(C)C5CC[C@]43C)C2[C@H]1C (stereo partly drawn) [Analogue 8b, N-[3β-Hydroxy-urs-12-en-28-oyl]-p-chloroaniline] | – | 1270 | –
CC(=O)O[C@H]1CC[C@@]2(C)C(CC[C@]3(C)C2CC=C2C4[C@@H](C)[C@H](C)CC[C@]4(C(=O)Nc4ccc(Br)cc4)CC[C@]23C)C1(C)C (stereo partly shown) [Analogue 9a] | 5.030 | – | –
C[C@@H]1CC[C@]2(C(=O)Nc3ccc(Br)cc3)CC[C@]3(C)C(=CCC4[C@@]5(C)CC[C@H](O)C(C)(C)C5CC[C@]43C)C2[C@H]1C (stereo partly drawn) [Analogue 9b, N-[3β-Hydroxy-urs-12-en-28-oyl]-p-bromoaniline] | – | 1280 | –
COc1ccc(NC(=O)[C@]23CC[C@@H](C)[C@H](C)C2C2=CCC4[C@@]5(C)CC[C@H](OC(C)=O)C(C)(C)C5CC[C@@]4(C)[C@]2(C)CC3)cc1 (stereo partly drawn) [Analogue 10a, N-[3β-acetoxy-urs-12-en-28-oyl]-p-methoxyamiline] | – | 2010 | –
COc1ccc(NC(=O)[C@]23CC[C@@H](C)[C@H](C)C2C2=CCC4[C@@]5(C)CC[C@H](O)C(C)(C)C5CC[C@@]4(C)[C@]2(C)CC3)cc1 (stereo partly drawn) [Analogue 10b, N-[3β-Hydroxy-urs-12-en-28-oyl]-p-methoxylaniline] | – | 2550 | –
C[C@@H]1CC[C@]2(C(=O)O)CC[C@]3(C)C(=CCC4[C@@]5(C)CCC(=O)C(C)(C)C5CC[C@]43C)C2[C@H]1C (stereo partly shown) [Analogue 11, 3-Oxo-urs-12-en-28-oic acid] | – | – | IC50 [1]: 2470 nM
